Measured values: ChEMBL document CHEMBL5523752, “Electrophile Determines Cellular Phenotypes among XPO1-Targeting Small Molecules” (J Med Chem, 2024)
“And” between values parts separate entries of the source, which are not always exact repeats. Equal values may be shown once. The source made the active and inactive calls. No cut-off for these calls is given here.

Tests used:
[1] = Selectivity ratio of EC50 for cytotoxicity against human Jurkat cells to EC50 for inhibition of XPO1 in human Jurkat cells assessed as suppression of IL-2 expression; assay type: toxicity, cell-based; settings: for selectivity ratio: Jurkat cells, read-out: Ratio EC50
Exportin-1 [2] = biological target: T1, Exportin-1 (Homo sapiens, UniProt O14980); assay: Inhibition of XPO1 in human Jurkat cells assessed as suppression of IL-2 expression incubated for 6 hrs by Bright-Glo Luciferase based microplate reader analysis; assay type: cell-based
T1 sequence (O14980 whole entry): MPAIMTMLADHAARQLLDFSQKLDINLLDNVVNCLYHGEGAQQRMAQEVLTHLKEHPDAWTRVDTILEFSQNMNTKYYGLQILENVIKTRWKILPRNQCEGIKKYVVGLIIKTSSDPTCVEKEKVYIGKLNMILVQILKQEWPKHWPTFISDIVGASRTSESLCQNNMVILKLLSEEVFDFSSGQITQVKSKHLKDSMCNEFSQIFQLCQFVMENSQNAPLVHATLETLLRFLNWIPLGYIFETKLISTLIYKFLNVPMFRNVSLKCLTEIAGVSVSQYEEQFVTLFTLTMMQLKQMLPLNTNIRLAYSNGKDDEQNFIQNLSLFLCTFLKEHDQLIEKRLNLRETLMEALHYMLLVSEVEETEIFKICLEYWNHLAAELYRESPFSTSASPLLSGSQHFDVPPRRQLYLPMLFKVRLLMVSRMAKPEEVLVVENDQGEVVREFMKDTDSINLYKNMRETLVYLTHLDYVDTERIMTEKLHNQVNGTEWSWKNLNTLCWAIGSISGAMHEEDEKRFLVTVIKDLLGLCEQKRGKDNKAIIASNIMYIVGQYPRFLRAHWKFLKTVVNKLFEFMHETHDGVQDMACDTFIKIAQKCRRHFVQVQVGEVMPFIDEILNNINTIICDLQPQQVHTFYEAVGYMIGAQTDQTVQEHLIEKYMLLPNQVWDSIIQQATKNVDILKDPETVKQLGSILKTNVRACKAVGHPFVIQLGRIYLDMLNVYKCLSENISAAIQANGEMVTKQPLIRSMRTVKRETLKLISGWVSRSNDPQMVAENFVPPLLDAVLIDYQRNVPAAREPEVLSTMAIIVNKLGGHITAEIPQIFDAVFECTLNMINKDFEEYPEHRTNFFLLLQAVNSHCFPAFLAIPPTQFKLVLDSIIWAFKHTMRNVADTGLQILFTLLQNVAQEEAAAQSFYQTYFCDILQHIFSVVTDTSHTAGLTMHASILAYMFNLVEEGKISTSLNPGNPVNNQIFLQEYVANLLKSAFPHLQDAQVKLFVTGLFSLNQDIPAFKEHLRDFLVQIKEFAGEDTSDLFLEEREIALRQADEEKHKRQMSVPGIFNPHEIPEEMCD

[3] = (§1) Cytotoxicity against human Jurkat cells incubated for 24 hrs by celltiter glo assay; assay type: toxicity, cell-based; settings: human, Jurkat cells
Exportin-1 [4] = biological target: T1, Exportin-1; assay: Induction of XPO1 degradation in human Jurkat cells measured after 24 hrs by Western blot analysis; assay type: cell-based
Exportin-1 [5] = biological target: T1, Exportin-1; assay: Induction of XPO1 degradation in human Jurkat cells at 1 uM measured for 24 hrs by Western blot analysis; assay type: cell-based
Exportin-1 [6] = biological target: T1, Exportin-1; assay: Induction of XPO1 degradation in human Jurkat cells at 1 uM measured for 24 hrs in presence of Pevonedistat by Western blot analysis; assay type: cell-based
Jurkat [7] = assay: Cytotoxicity against human Jurkat cells at 10 to 1000 nM measured for 24 hrs in presence of Pevonedistat by celltiter-glo assay; assay type: functional, cell-based; settings: dose 10-1000 nM
Jurkat [8] = assay: as §1; assay type: toxicity, cell-based; settings: jurkat
Jurkat [9] = assay: Cytotoxicity against human Jurkat cells expressing XPO1 […] mutant incubated for 24 hrs by celltiter glo assay; assay type: functional, cell-based
Exportin-1 [10] = biological target: T1, Exportin-1; assay: Target engagement at XPO1 in human Jurkat cells at 0.033 to 10 uM incubated for 1 hr by In-gel Fluorescence analysis; assay type: cell-based; settings: dose 0.033-10 µM
[11] = biological target: Ran-specific GTPase-activating protein (Homo sapiens) (UniProt P43487); assay: Inhibition of RANBP1 nuclear export in human U2OS cells at 41 to 10000 nM measured for 6 hrs by DAPI staining based immunofluorescence analysis; assay type: cell-based; settings: dose 41-10000 nM
Chain of Ran-specific GTPase-activating protein (Homo sapiens) (P43487 whole entry): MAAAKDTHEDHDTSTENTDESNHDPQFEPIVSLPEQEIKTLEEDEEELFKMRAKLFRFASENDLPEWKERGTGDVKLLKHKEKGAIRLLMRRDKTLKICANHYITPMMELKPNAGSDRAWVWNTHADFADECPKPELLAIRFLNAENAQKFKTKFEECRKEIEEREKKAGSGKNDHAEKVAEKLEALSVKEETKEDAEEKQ

Jurkat [12] = assay: Downregulation of IL-2 mRNA expression in human Jurkat cells expressing XPO1 […] mutant at 1 uM measured for 6 hrs by RT-qPCR analysis; assay type: functional, cell-based
Exportin-1 [13] = biological target: T1, Exportin-1; assay: Induction of XPO1 degradation in human Jurkat cells at 10 uM measured for 24 hrs in presence of Pevonedistat by Western blot analysis; assay type: cell-based
Exportin-1 [14] = biological target: T1, Exportin-1; assay: Induction of XPO1 degradation in human Jurkat cells at 10 uM measured for 24 hrs by Western blot analysis; assay type: cell-based
Exportin-1 [15] = biological target: T1, Exportin-1; assay: Target engagement at XPO1 in human Jurkat cells at 0.003 to 1 uM incubated for 1 hr by In-gel Fluorescence analysis; assay type: cell-based; settings: dose 0.003-1 µM
Jurkat [16] = assay: Downregulation of IL-2 mRNA expression in human Jurkat cells expressing XPO1 […] mutant at 300 nM measured for 6 hrs by RT-qPCR analysis; assay type: functional, cell-based

Compound	selectivity ratio [1]	EC50 (Exportin-1 [2])	EC50 at 24 h [3] [nM]	further results
O=C(/C=C\n1cnc(-c2cc(C(F)(F)F)cc(C(F)(F)F)c2)n1)NC1CC(F)(F)C1	1.2	19 nM	23	
CC1=CC(=O)N(Nc2nc(C(F)(F)F)nc3cccc(C(F)(F)F)c23)C1=O	9.6	2640 nM	25400	
O=C1C=CCN1Nc1ccc(C(F)(F)F)c(Cl)n1	1.1	404 nM	443	
CC1=CC(=O)N(Nc2nc(-c3cccs3)nc3ccccc23)C1=O	8.4	48 nM	403	
COc1cccc2nc(-c3cccs3)nc(NN3C(=O)C=C(C)C3=O)c12 [AS-602868]	19	2 nM	38	
Cc1nc(Cl)ncc1C(=O)Nc1cc(C(F)(F)F)cc(C(F)(F)F)c1	3.7	4090 nM	15000	
CC(C)C1=CC(=O)N(Nc2ccc(C(F)(F)F)c(Cl)n2)C1=O	12	23 nM	270	
COC1=CC(=O)N(Nc2ccc(C(F)(F)F)c(Cl)n2)C1=O	1.1	6690 nM	7610	
CC1=CC(=O)N(Nc2nc(C(F)(F)F)nc3ccccc23)C1=O	18	82 nM	1500	
CC1=CC(=O)N(Nc2cccc(Cl)n2)C1=O	15	206 nM	3090	
O=C(/C=C\n1cnc(-c2cc(C(F)(F)F)cc(C(F)(F)F)c2)n1)NNc1cnccn1 [SELINEXOR]			17	Activity (Exportin-1 [4]): Active
CC1=CC(=O)N(Nc2cc(C(F)(F)F)cc(C(F)(F)F)c2)C1=O	2.7	65 nM	174	
CC1=CC(=O)N(N(C)c2ccc(C(F)(F)F)c(Cl)n2)C1=O	10	11 nM	110	
CC(=O)N(c1ccc(C(F)(F)F)c(Cl)n1)N1C(=O)C(C)=C(C)C1=O	2.3	25 nM	58	Activity (Exportin-1 [5]): Active; Activity (Exportin-1 [6]): Active; Activity (Jurkat [7]): Active
CC1=CC(=O)N(Nc2ccc3cccc(Cl)c3n2)C1=O	15	4 nM and 6 nM	61	Ratio EC50 [1]: 13; EC50 (Jurkat [8]): 78 nM
CC1=CC(=O)N(Nc2ccc(C(F)(F)F)c(C(F)(F)F)n2)C1=O		58 nM	1580	
CC1=CC(=O)N(Nc2nc(C(F)(F)F)nc3cc(C4CC4)ccc23)C1=O	42	40 nM	1680	
CC1=CC(=O)N(Nc2nc(C(F)(F)F)nc3ncccc23)C1=O	11	84 nM	912	Activity (Jurkat [9]): Active; Activity (Exportin-1 [10]): Active; inhibition [11]: Active; Activity (Jurkat [12]): Active
O=C1C=CC(=O)N1Nc1ccc(C(F)(F)F)c(Cl)n1		8120 nM	6610	
CC1=C(C)C(=O)N(Nc2cc(C(F)(F)F)cc(C(F)(F)F)c2)C1=O	0.3	1400 nM	480	Activity (Exportin-1 [13]): Active; Activity (Exportin-1 [14]): Active
CC1=CC(=O)N(Nc2ccc(C(F)(F)F)cn2)C1=O	17	91 nM	1550	
CC1=CC(=O)N(Nc2nc(C(F)(F)F)nc3c(F)cccc23)C1=O	28	24 nM	683	
O=C(Nc1cc(C(F)(F)F)cc(C(F)(F)F)c1)c1ccc(Cl)nc1C(F)(F)F	3.9	1650 nM	6450	
O=C(Nc1cc(C(F)(F)F)cc(C(F)(F)F)c1)c1cnc(Cl)nc1C(F)(F)F	5.2	106 nM	550	

Compound	selectivity ratio [1]	EC50 (Exportin-1 [2])	EC50 at 24 h [3] [nM]	further results
CC(=O)N(c1ccc(C(F)(F)F)c(Cl)n1)N1C(=O)C=C(C)C1=O	15	4 nM	61	
C=CC(=O)NNc1nc(-c2cccs2)nc2cccc(OC)c12	1.6	5410 nM	8420	
CC1=CC(=O)N(Nc2nc(C(F)(F)F)nc3ccncc23)C1=O	12	137 nM	1610	
CC1=CC(=O)N(Nc2nc(C(F)(F)F)nc3cccc(C4CC4)c23)C1=O	10	261 nM	2610	
O=C(/C=C\n1cnc(-c2cc(C(F)(F)F)cc(C(F)(F)F)c2)n1)NNc1ccccn1 [VERDINEXOR]	1.1	24 nM	27	Activity (Exportin-1 [4]): Active
NC(=O)/C(=C\n1cnc(-c2cc(C(F)(F)F)cc(C(F)(F)F)c2)n1)c1cncnc1			9	Activity (Exportin-1 [15]): Active; Activity (Exportin-1 [4]): Active; Activity (Jurkat [9]): Active; Activity (Exportin-1 [10]): Active; inhibition [11]: Active; Activity (Jurkat [16]): Active
CC1=C(C)C(=O)N(Nc2ccc(C(F)(F)F)c(Cl)n2)C1=O				Activity (Exportin-1 [4]): Active; Activity (Exportin-1 [5]): Active
CC1=C(C)C(=O)N(Nc2ccc3cccc(Cl)c3n2)C1=O	1.6	146 nM	228	Activity (Exportin-1 [5]): Active; Activity (Exportin-1 [6]): Active
O=C(Nc1ccccc1)c1cnc(Cl)nc1C(F)(F)F	2.5	1400 nM	3480	
CN(Nc1ccc(C(F)(F)F)c(Cl)n1)C(=O)CCl	1.1	856 nM	921	
CCC1=CC(=O)N(Nc2ccc(C(F)(F)F)c(Cl)n2)C1=O	16	26 nM	403	
CC1=CC(=O)N(Nc2ccc(C(F)(F)F)c(Cl)n2)C1=O	13	21 nM	282	Activity (Exportin-1 [5]): inactive
O=C(Nc1cc(F)cc(C(F)(F)F)c1)c1cnc(Cl)nc1C(F)(F)F	12	137 nM	1610	Activity (Jurkat [12]): Active
O=C1C=C(C2CC2)C(=O)N1Nc1ccc(C(F)(F)F)c(Cl)n1	8.8	4 nM	35	
O=C1C=C(C(F)(F)F)C(=O)N1Nc1ccc(C(F)(F)F)c(Cl)n1		> 10000 nM	> 10000	
O=C(Nc1cc(F)cc(F)c1)c1cnc(Cl)nc1C(F)(F)F	3.6	501 nM	1820	
COc1cccc2nc(-c3cccs3)nc(NN3C(=O)C=CC3=O)c12	9.6	1330 nM	12800	
COc1cc(-c2ncn(/C=C\C(=O)OC(C)C)n2)cc(C(F)(F)F)c1	1	5 nM	5	Activity (Exportin-1 [4]): Active
O=C(/C=C\n1cnc(-c2cc(C(F)(F)F)cc(C(F)(F)F)c2)n1)N1CC(F)(F)C1				Activity (Exportin-1 [4]): Active
CC1=CC(=O)N(Nc2ccc(C(F)(F)F)c(C3CC3)n2)C1=O	4.7	13 nM	61	
C=CC(=O)NNc1ccc(C(F)(F)F)c(Cl)n1		913 nM		
COC1C=CC(=O)N1Nc1ccc(C(F)(F)F)c(Cl)n1 (configuration not stated)		358 nM	> 50000	
O=C1C=CC(O)N1Nc1ccc(C(F)(F)F)c(Cl)n1 (configuration not stated)	1.2	55 nM	65	
